Assays:
ID8 cells = test: Inhibition assay of transporters to determine entry mechanism of PH08; type: cell-based, murine; conditions: 0.2 μM PH08
Method: FIG. 2 Cellular uptake of pH sensing NIR fluorophores via membrane transporters: In vitro tumor cell uptake of the pH sensing NIR probes under normoxic and hypoxic conditions. Murine cancer cell line ID8 cells were incubated at normoxic or hypoxic conditions (1% O2) for 24 h at 37° C. and then incubated for 30 min in the presence of 0.1 μM NIR probes. (a) Representative fluorescence images of cells are shown. The contrast was normalized across all images. Scale bar=100 μm. (b) Quantitative time-course measurements of the fluorescence intensity in cells. *P<0.05, **P<0.01 by two-way ANOVA followed by Tukey's multiple comparisons test (Normoxia vs. Hypoxia). Error bars show mean #s.d. […] Representative fluorescence images of cells are shown. […] (d) Quantitative measurements of the fluorescence intensity in cells. *P<0.05 by two-way ANOVA followed by Tukey's multiple comparisons test. […]
The organic anion transporting polypeptides (OATPs) is known to mediate the transmembrane uptake of small molecule drugs and include structurally related fluorophores such as the clinically approved indocyanine green (ICG) and tumor-targeting IR-780. […] Next, we determined the contribution of organic cation transporters (OCTs) and organic carnitine (zwitterion) transporters (OCTNs) on the uptake of PH08, which may play roles in the transcellular movement of small organic molecules across epithelial barriers. […]

[1] = tested on: ID8 ovarian cancer tumor tissue; test: Histological analysis of tumor-targetability of the NIR fluorophore; type: in vivo, mice; conditions: frozen sections, 4 h post-injection of 20 nmol
Method: Histological analysis of tumor-targetability of the NIR fluorophore: To determine the tissue distribution of the NIR fluorophore, tumors and major organs were removed from ID8 ovarian cancer-bearing mice 4 h post-injection with 20 nmol of PH08 in 100 μL of 5% wt/v BSA/saline. The dissected tissues were trimmed and embedded in Tissue-Tek optimum cutting temperature (OCT) compound (Sakura Finetek, Torrance, CA) without a pre-fixation step, and the tissue block was frozen at −80° C. Ten-μm thick frozen sections were cut by a cryostat (Leica, Germany). The slides were subject to fluorescence analysis first, then stained for hematoxylin and eosin (H&E). Fluorescence and brightfield images were acquired on the 4-channel Nikon TE2000 epifluorescence microscope. Image acquisition and analysis were performed using IPLab software (Scanalytics, Fairfax, VA). […] Exposure times were adjusted to obtain a similar maximum fluorescence value for each fluorescence image. […] In order to validate the tumor-specific fluorescence signal, frozen sections including both tumor and adjacent normal tissues harvested from tumor-bearing mice were examined by fluorescence microscopy. […] The fluorescence signal was mostly seen on the top 3-4 layers of cells in the tumor tissue, of which the signal was found predominantly in the extracellular space and cytoplasm.

Structure (SMILES): CCN1/C(=C/C=C2\CCCC(/C=C/C3=[N+](CC)c4ccccc4C3(C)C)=C2N2CCNCC2)C(C)(C)c2ccccc21 [PH08]
- cellular uptake after treatment with D22, inhibitor of OCTs and OCTNs (ID8 cells): did not induce changes in cellular uptake
- cellular uptake after treatment with bromsulphthalein (BSP), OATP inhibitor (ID8 cells): significant reduction in cellular uptake
- fluorescence signal in tissue sections [1]: detected throughout the tumor tissue with no substantial fluorescence signals in neighboring muscles
